Assay results: patent US4507287A, “Preparation and method for the treatment of acne” (priority 1983, dated 1985)
Read-outs that look alike come from different tables or passages of the source.

Columns and labels:
normal skin [1] = conditions: in vivo
Experimental: This rash, however, usually disappears shortly thereafter with no ill effects. Annals of the New York Academy of Sciences, Vol. […], (1967). S. W. Jacob, E. E. Rosenbaum, and D. C. Wood, eds., Vol. 1, Dimethyl Sulfoxide, 99 (1971), and Vol. 243, Annals of the New York Academy of Sciences, (1975). In the present invention DMSO is diluted to 70% with demineralized water before ara-A is added.

[2] = animals and humans; cited from earlier work
normal skin [3] = conditions: applied to skin; cited from earlier work
acne [4] = experiment: topical treatment of acne with antibiotics mixed with DMSO; format: in vivo; conditions: antibiotic mixed with DMSO
Description: These antibiotics including, amikacin, cefamandole, cefoxitin, erythromycin, tetracycline, tobramycin, vancomycin, lincomycin, and carbenicillin.

rats = experiment: acute oral toxicity of ara-A in rats; format: in vivo; conditions: extrapolated from LD50 in rats and mice
Experimental: Regarding toxicity or other side effects on the patient of the proposed preparation, extensive pharmacologic and toxicity studies on ara-A have been carried out in animals and in man. […] This dose level indicates a low order of toxicity to a single parenteral dose. The acute oral LD50 in both rats and mice is greater than […]. This amount would be equivalent to more than […] (one and two thirds pound) in an average 150 pound person. […] In the form used in the present invention and with treatment by topical application, it is highly unlikely that any toxic side effects of ara-A would be observed.

[5] = solubility of ara-A in DMSO/water versus water; format: physicochemical; conditions: DMSO in the solvent carrier medium
[6] = recovery of unchanged ara-A from the DMSO and water solution; format: physicochemical; conditions: under the conditions of preparation
Experimental: There are no special procedures involved in preparing of the preparation for the treatment of acne of the present invention. The demineralized water and DMSO can be mixed first, and the ara-A (and benzocaine if used) is then dissolved in the DMSO and water solution. The ara-A can be added to the pure DMSO, and water can be added last. When water and DMSO are mixed, the solution becomes warm because there is a positive heat of solution. […] Ara-A can be recovered from the DMSO and water solution virtually 100% as unchanged ara-A.

DNA viruses = conditions: in vitro and in vivo (animal models or man), cited from earlier work
DNA polymerase = conditions: suppresses viral replication; cited from earlier work
[7] = cited from earlier work
[8] = intravenous form; cited from earlier work
acne lesions = experiment: topical treatment of acne with ara-A and DMSO; format: in vivo; conditions: benzocaine added to ara-A/DMSO medication
Description: Treatment of acne with the disclosed preparation should begin as soon as the first sign of the lesion (pimple) is apparent. […] The medication should be applied every two to four hours for the first two days during waking hours.

[9] = in vivo
Description: Also one to two percent high viscosity carboxymethylcellulose, Carbopol (manufactured by Firestone Company, Akron, Ohio), or other suitable gelling agent might be added to the mixture to provide a gel which may be preferred for topical application.

acne [10] = conditions: oral, long-term; Plewig et al.; cited from earlier work

C[S+](C)[O-] [DMSO, dimethyl sulfoxide]
skin irritation at 70% DMSO (normal skin [1]): usually non-irritating to normal skin
toxicity [2]: essentially nontoxic
skin reaction to undiluted DMSO (normal skin [3]): sometimes may cause an itching or burning sensation with redness or rash

NCC[C@H](O)C(=O)N[C@@H]1C[C@H](N)[C@@H](O[C@H]2O[C@H](CN)[C@@H](O)[C@H](O)[C@H]2O)[C@H](O)[C@H]1O[C@H]1O[C@H](CO)[C@@H](O)[C@H](N)[C@H]1O [amikacin]
effectiveness in topical treatment of acne (acne [4]): effective in the topical treatment of acne

Nc1ncnc2c1ncn2[C@@H]1O[C@H](CO)[C@@H](O)[C@@H]1O [ara-A, adenine-9- -D-arabinofuranoside]
amount equivalent to the acute oral LD50 in an average 150 pound person (rats): more than 750 grams
amount of ara-A dissolved versus DMSO concentration [5]: The higher the concentration of DMSO in the solvent carrier medium, the greater is the amount of ara-A that can be dissolved
chemical reaction between ara-A and DMSO [6]: no chemical reaction
antiviral activity (DNA viruses): active against a broad spectrum of DNA viruses
antiviral activity (DNA viruses; listed as Ara-A): in some cases to be effective against Herpes simplex virus
inhibition of DNA polymerase (DNA polymerase): inhibits the enzyme DNA polymerase
toxicity through topical application [7]: not possible to demonstrate toxicity
redness and irritation after topical application ([7]; in some cases): redness and slight irritation has been noted
side effects of massive acute overdosage [8]: without any serious side effects

CCOC(=O)c1ccc(N)cc1 [benzocaine]
influence of benzocaine on effectiveness of the medication (acne lesions): does not impair the effectiveness of the medication
deleterious effect on the patient [9]: Nor does the benzocaine appear to have any deleterious effect on the patient

CC1(C)S[C@@H]2[C@H](NC(=O)C(C(=O)O)c3ccccc3)C(=O)N2[C@H]1C(=O)O (some centres unmarked) [carbenicillin]
effectiveness in topical treatment of acne (acne [4]): effective in the topical treatment of acne

Cn1nnnc1SCC1=C(C(=O)O)N2C(=O)[C@@H](NC(=O)[C@H](O)c3ccccc3)[C@H]2SC1 [cefamandole]
effectiveness in topical treatment of acne (acne [4]): effective in the topical treatment of acne

CO[C@@]1(NC(=O)Cc2cccs2)C(=O)N2C(C(=O)O)=C(COC(N)=O)CS[C@@H]21 [cefoxitin]
effectiveness in topical treatment of acne (acne [4]): effective in the topical treatment of acne

CC[C@H]1OC(=O)[C@H](C)[C@@H](O[C@H]2C[C@@](C)(OC)[C@@H](O)[C@H](C)O2)[C@H](C)[C@@H](O[C@@H]2O[C@H](C)C[C@H](N(C)C)[C@H]2O)[C@](C)(O)C[C@@H](C)C(=O)[C@H](C)[C@@H](O)[C@]1(C)O [erythromycin]
effectiveness in topical treatment of acne (acne [4]): effective in the topical treatment of acne
help in the management of acne (acne [10]): help in the management of acne

CCC[C@@H]1C[C@@H](C(=O)N[C@@H]([C@H]2O[C@H](SC)[C@H](O)[C@@H](O)[C@H]2O)[C@@H](C)O)N(C)C1 [lincomycin]
effectiveness in topical treatment of acne (acne [4]): effective in the topical treatment of acne
help in the management of acne (acne [10]): help in the management of acne

CN(C)C1C(=O)C(C(N)=O)=C(O)C2(O)C(=O)C3=C(O)c4c(O)cccc4C(C)(O)C3CC12 (centres unmarked) [tetracycline]
effectiveness in topical treatment of acne (acne [4]): effective in the topical treatment of acne
help in the management of acne (acne [10]): help in the management of acne

NC[C@H]1O[C@H](O[C@H]2[C@H](O)[C@@H](O[C@H]3O[C@H](CO)[C@@H](O)[C@H](N)[C@H]3O)[C@H](N)C[C@@H]2N)[C@H](N)C[C@@H]1O [tobramycin]
effectiveness in topical treatment of acne (acne [4]): effective in the topical treatment of acne

CN[C@H](CC(C)C)C(=O)N[C@H]1C(=O)N[C@@H](CC(N)=O)C(=O)N[C@H]2C(=O)N[C@H]3C(=O)N[C@H](C(=O)N[C@H](C(=O)O)c4cc(O)cc(O)c4-c4cc3ccc4O)[C@H](O)c3ccc(c(Cl)c3)Oc3cc2cc(c3O[C@@H]2O[C@H](CO)[C@@H](O)[C@H](O)[C@H]2O[C@H]2C[C@](C)(N)[C@H](O)[C@H](C)O2)Oc2ccc(cc2Cl)[C@H]1O [vancomycin]
effectiveness in topical treatment of acne (acne [4]): effective in the topical treatment of acne
